Values of other authors in patent publication US20100166671A1, “ORGANIC COMPOUNDS” (priority 2006, published 2010).

Conditions: single administration of a metered dose, aerosol formulation, treating asthma

For C[N+]1(C)CCC(OC(=O)C(O)(c2ccccc2)C2CCCC2)C1.[Br-] (stereo not shown) [glycopyrrolate, 3-[(cyclopentyl-hydroxyphenylacetyl)oxy]-1,1-dimethylpyrrolidinium bromide], the duration of bronchodilation is listed as “up to 12 hours”.
